Reference: patent publication US8192962B2, “Processes for detecting toxic substances” (Daikin Industries, Ltd., priority 2001, dated 2012)

Test system: Mitochondria-located protein genes
Test: DNA chip mRNA expression in yeast, mitochondria-located protein genes (Table 2)
Assay type: cell-based, Saccharomyces cerevisiae S288C
Conditions: cells incubated two hours with the chemical substance
Method in brief: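 Value is the scanned fluorescence intensity ratio of exposed versus chemical-free cells. Log-phase S288C yeast in YPD at 25° C. received one toxic substance for two hours, dosed to slow growth without killing; Cy3/Cy5-labeled cDNA from oligo-dT-purified mRNA was hybridized to a whole-genome chip at 65° C.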

COc1cc(CNC(=O)CCCCC=CC(C)C)ccc1O [(12), 8-methyl-N-vanillyl-6-nonenamide]
The level of expressed mRNA in the presence of chemical substance/The level of expressed mRNA in the absence of chemical substance (yeast gene YAL039C): 1.4 | The level of expressed mRNA in the presence of chemical substance/The level of expressed mRNA in the absence of chemical substance (yeast gene YBL022C): 0.9 | The level of expressed mRNA in the presence of chemical substance/The level of expressed mRNA in the absence of chemical substance (yeast gene YBL030C): 0.9 | The level of expressed mRNA in the presence of chemical substance/The level of expressed mRNA in the absence of chemical substance (yeast gene YBL038W): 0.7 | The level of expressed mRNA in the presence of chemical substance/The level of expressed mRNA in the absence of chemical substance (yeast gene YBL099W): 1.0 | The level of expressed mRNA in the presence of chemical substance/The level of expressed mRNA in the absence of chemical substance (yeast gene YBR003W): 0.8 | The level of expressed mRNA in the presence of chemical substance/The level of expressed mRNA in the absence of chemical substance (yeast gene YBR044C): 0.8 | The level of expressed mRNA in the presence of chemical substance/The level of expressed mRNA in the absence of chemical substance (yeast gene YBR091C): 0.8 | The level of expressed mRNA in the presence of chemical substance/The level of expressed mRNA in the absence of chemical substance (yeast gene YBR122C): 0.7 | The level of expressed mRNA in the presence of chemical substance/The level of expressed mRNA in the absence of chemical substance (yeast gene YBR185C): 0.7 | The level of expressed mRNA in the presence of chemical substance/The level of expressed mRNA in the absence of chemical substance (yeast gene YBR221C): 1.3 | The level of expressed mRNA in the presence of chemical substance/The level of expressed mRNA in the absence of chemical substance (yeast gene YBR251W): 1.1 | The level of expressed mRNA in the presence of chemical substance/The level of expressed mRNA in the absence of chemical substance (yeast gene YBR282W): 0.8 | The level of expressed mRNA in the presence of chemical substance/The level of expressed mRNA in the absence of chemical substance (yeast gene YCL057W): 1.0 | The level of expressed mRNA in the presence of chemical substance/The level of expressed mRNA in the absence of chemical substance (yeast gene YCR046C): 1.1 | The level of expressed mRNA in the presence of chemical substance/The level of expressed mRNA in the absence of chemical substance (yeast gene YCR083W): 1.1 | The level of expressed mRNA in the presence of chemical substance/The level of expressed mRNA in the absence of chemical substance (yeast gene YDL067C): 1.0 | The level of expressed mRNA in the presence of chemical substance/The level of expressed mRNA in the absence of chemical substance (yeast gene YDL181W): 0.9 | The level of expressed mRNA in the presence of chemical substance/The level of expressed mRNA in the absence of chemical substance (yeast gene YDL198C): 1.2 | The level of expressed mRNA in the presence of chemical substance/The level of expressed mRNA in the absence of chemical substance (yeast gene YDR079W): 1.1 | The level of expressed mRNA in the presence of chemical substance/The level of expressed mRNA in the absence of chemical substance (yeast gene YDR178W): 1.3 | The level of expressed mRNA in the presence of chemical substance/The level of expressed mRNA in the absence of chemical substance (yeast gene YDR231C): 1.1 | The level of expressed mRNA in the presence of chemical substance/The level of expressed mRNA in the absence of chemical substance (yeast gene YDR258C): 1.8 | The level of expressed mRNA in the presence of chemical substance/The level of expressed mRNA in the absence of chemical substance (yeast gene YDR298C): 1.1 | The level of expressed mRNA in the presence of chemical substance/The level of expressed mRNA in the absence of chemical substance (yeast gene YDR347W): 0.8 | The level of expressed mRNA in the presence of chemical substance/The level of expressed mRNA in the absence of chemical substance (yeast gene YDR377W): 0.9 | The level of expressed mRNA in the presence of chemical substance/The level of expressed mRNA in the absence of chemical substance (yeast gene YDR529C): 0.6 | The level of expressed mRNA in the presence of chemical substance/The level of expressed mRNA in the absence of chemical substance (yeast gene YEL024W): 0.8 | The level of expressed mRNA in the presence of chemical substance/The level of expressed mRNA in the absence of chemical substance (yeast gene YEL039C): 0.6 | The level of expressed mRNA in the presence of chemical substance/The level of expressed mRNA in the absence of chemical substance (yeast gene YER178W): 1.3 | The level of expressed mRNA in the presence of chemical substance/The level of expressed mRNA in the absence of chemical substance (yeast gene YFL016C): 1.0 | The level of expressed mRNA in the presence of chemical substance/The level of expressed mRNA in the absence of chemical substance (yeast gene YGL018C): 1.0 | The level of expressed mRNA in the presence of chemical substance/The level of expressed mRNA in the absence of chemical substance (yeast gene YGL187C): 0.8 | The level of expressed mRNA in the presence of chemical substance/The level of expressed mRNA in the absence of chemical substance (yeast gene YGL191W): 0.9 | The level of expressed mRNA in the presence of chemical substance/The level of expressed mRNA in the absence of chemical substance (yeast gene YGR008C): 2.0 | The level of expressed mRNA in the presence of chemical substance/The level of expressed mRNA in the absence of chemical substance (yeast gene YGR028W): 1.5 | The level of expressed mRNA in the presence of chemical substance/The level of expressed mRNA in the absence of chemical substance (yeast gene YGR062C): 1.0 | The level of expressed mRNA in the presence of chemical substance/The level of expressed mRNA in the absence of chemical substance (yeast gene YGR076C): 1.0 | The level of expressed mRNA in the presence of chemical substance/The level of expressed mRNA in the absence of chemical substance (yeast gene YGR082W): 0.8 | The level of expressed mRNA in the presence of chemical substance/The level of expressed mRNA in the absence of chemical substance (yeast gene YGR174C): 0.9 | The level of expressed mRNA in the presence of chemical substance/The level of expressed mRNA in the absence of chemical substance (yeast gene YGR244C): 1.9 | The level of expressed mRNA in the presence of chemical substance/The level of expressed mRNA in the absence of chemical substance (yeast gene YHR008C): 0.7 | The level of expressed mRNA in the presence of chemical substance/The level of expressed mRNA in the absence of chemical substance (yeast gene YIL155C): 1.4 | The level of expressed mRNA in the presence of chemical substance/The level of expressed mRNA in the absence of chemical substance (yeast gene YJL096W): 1.0 | The level of expressed mRNA in the presence of chemical substance/The level of expressed mRNA in the absence of chemical substance (yeast gene YJL102W): 0.8 | The level of expressed mRNA in the presence of chemical substance/The level of expressed mRNA in the absence of chemical substance (yeast gene YJL133W): 0.8 | The level of expressed mRNA in the presence of chemical substance/The level of expressed mRNA in the absence of chemical substance (yeast gene YJL166W): 0.7 | The level of expressed mRNA in the presence of chemical substance/The level of expressed mRNA in the absence of chemical substance (yeast gene YJL180C): 0.8 | The level of expressed mRNA in the presence of chemical substance/The level of expressed mRNA in the absence of chemical substance (yeast gene YJR045C): 1.0 | The level of expressed mRNA in the presence of chemical substance/The level of expressed mRNA in the absence of chemical substance (yeast gene YJR077C): 1.0
